Values of other authors as cited in patent US20060165789A1, “Lercanidipine modified release compositions” (Forest Laboratories, Inc., priority 2004, published 2006).

How the values were obtained:
[1] = for time of maximum concentration (Tmax): form (I) and form (II) compared
[2] = test system: dihyropyridine subunit of the L-type calcium channel
[3] = biological target: cytochrome P450 3A4 isoenzyme (Homo sapiens, UniProt P08684); settings: extensive presystemic first pass elimination in patients
Sequence of cytochrome P450 3A4 isoenzyme (P08684 whole entry): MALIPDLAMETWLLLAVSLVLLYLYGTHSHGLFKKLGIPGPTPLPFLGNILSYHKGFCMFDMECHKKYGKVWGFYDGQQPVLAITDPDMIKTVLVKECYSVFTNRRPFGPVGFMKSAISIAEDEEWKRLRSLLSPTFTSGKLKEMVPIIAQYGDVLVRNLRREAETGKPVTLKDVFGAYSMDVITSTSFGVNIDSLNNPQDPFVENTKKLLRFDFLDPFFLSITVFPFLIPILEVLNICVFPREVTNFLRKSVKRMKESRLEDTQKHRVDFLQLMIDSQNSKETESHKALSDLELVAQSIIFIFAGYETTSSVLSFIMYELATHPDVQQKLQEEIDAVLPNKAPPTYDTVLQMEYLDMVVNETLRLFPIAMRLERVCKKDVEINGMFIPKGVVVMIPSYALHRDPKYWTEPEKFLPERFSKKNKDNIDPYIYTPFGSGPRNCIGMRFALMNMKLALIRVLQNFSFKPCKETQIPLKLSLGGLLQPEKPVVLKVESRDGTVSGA

Caco2 cell = Caco2 cell apparatus
[4] = pH 5

Row | SMILES | time of maximum concentration (Tmax) [1] | bioavailability ([1]; form (II) compared to Form (I)) | systemic exposure (AUCo-t) ([1]; form (II) compared to Form (I)) | affinity for L-type calcium channel [2] | cytochrome P450 3A4 substrate [3] | Papp (Caco2 cell) [×10⁻⁶ cm/s] | increase of amount of lercanidipine absorbed with food (in vivo) | time of peak plasma level following dosage (oral administration) [h] | solubility in acidic medium [4]
1 | COC(=O)C1=C(C)NC(C)=C(C(=O)OC(C)(C)CN(C)CCC(c2ccccc2)c2ccccc2)C1c1cccc([N+](=O)[O-])c1 (stereo not shown) [form (I)] | shorter time to maximum concentration | – | – | – | – | – | – | – | –
2 | COC(=O)C1=C(C)NC(C)=C(C(=O)OC(C)(C)CN(C)CCC(c2ccccc2)c2ccccc2)C1c1cccc([N+](=O)[O-])c1 (stereo not shown) [form (II)] | delayed time of maximum concentration | higher bioavailability | slightly higher systemic exposure | – | – | – | – | – | –
3 | COC(=O)C1=C(C)NC(C)=C(C(=O)OC(C)(C)CN(C)CCC(c2ccccc2)c2ccccc2)C1c1cccc([N+](=O)[O-])c1.Cl (stereo not shown) [Lercanidipine, methyl 1,1,N-trimethyl-N-(3,3-diphenylpropyl)-2-aminoethyl 1,4-dihydro-2,6-dimethyl-4-(3-nitrophenyl)pyridine-3,5-dicarboxylate] | – | – | – | high affinity | substrate for cytochrome P450 3A4 isoenzyme | 0.05 | between three and four times | 1 to 3 | less than 20 μg/ml
